Publication PMC12040169 (PLOS Biology, 2025)

Assay: in vitro
Settings: human, hela cells, % viability

SMILES | viability at 28.5 h, 10 µM
O=C(O)c1cccnc1SCc1cc2c(cc1Cl)OCO2 [CBK287178] | 93.9%
CCc1ccccc1NC(=O)CN1CCCCC1C(=O)O (stereo not drawn) [CBK287179] | 92.4%
O=C(O)c1ccccc1S(=O)(=O)CC(=O)N1CCCCC1 [CBK287180] | 89.1%
Cc1ccc(C2CCC(C(=O)O)C(C(=O)O)C2)cc1C (stereo not drawn) [CBK287184] | 98.2%
Nc1nc(-c2ccc(Cl)cc2)c(CC(=O)O)s1 [CBK287188] | 80%
COc1ccccc1NC(CC(=O)c1ccccc1)C(=O)O (stereo not drawn) [CBK287190] | 83.8%
O=C(O)CCC(=O)CCC(=O)c1ccc(F)cc1 [CBK287191] | 87.3%
O=C(O)CCN1C(=O)COc2ccc(Cl)cc21 [CBK287192] | 107%
Cc1ccc(C(=O)CC(C(=O)O)c2cn(CCC#N)c3ccccc23)cc1 (stereo not drawn) [CBK287194] | 85.8%
O=C(O)C1CCN(c2c(-c3ccccc3)c3cc(Cl)ccc3[nH]c2=O)CC1 [CBK287198] | 87.3%
CCCn1cnc2sc(C(=O)O)c(C)c2c1=O [CBK287199] | 96%
CCCNC(=O)CSc1ncccc1C(=O)O [CBK287202] | 78.6%
Cc1ccc(CN(c2ccc(C(=O)O)cc2)S(C)(=O)=O)cc1 [CBK287203] | 85%
CC(C)(C)NC(=O)COc1ccc(CNCc2ccc(C(=O)O)cc2)cc1 [CBK287204] | 78.1%
CCCCNCC(=O)Nc1sc2c(c1C(=O)O)CCCC2 [CBK287207] | 83.7%
O=C(O)CCC1C(=O)CCC1(C(=O)O)c1ccccc1 (stereo not drawn) [CBK287208] | 108%
O=C(O)C1CCN(C2C(=O)Nc3ccc(Cl)cc3C2c2ccccc2)CC1 (stereo not drawn) [CBK287210] | 94.4%
O=C(O)C1CC(=O)N(CCc2c[nH]c3ccc(Cl)cc23)C1 (stereo not drawn) [CBK287211] | 91%
CC(C)CC(NC(=O)C1CCC(C)CC1)C(=O)O (stereo not drawn) [CBK287212] | 88.2%
O=C(O)[C@@H]1CSC(c2ccc3c(c2)OCO3)N1 (stereo partly drawn) [CBK287214] | 89.8%
CN(C)S(=O)(=O)c1ccc(CCC(=O)O)cc1 [CBK287216] | 92%
O=C(O)CCSc1nnnn1-c1ccccc1 [CBK287217] | 88.4%
O=C(O)Cn1c(=O)[nH]c2c(-c3ccccc3)c[nH]c2c1=O [CBK287218] | 87.2%

SMILES | viability at 28.5 h, 10 µM
NC(CSC12CC3CC(CC(C3)C1)C2)C(=O)O (stereo not drawn) [CBK287219] | 88.2%
O=C(O)CC(CN1C(=O)c2ccccc2C1=O)C(=O)c1ccccc1 (stereo not drawn) [CBK287221] | 92.4%
O=C(O)/C=C/C(=O)NCCc1c[nH]c2ccccc12 [CBK287222] | 93%
O=C(O)CCc1ccc(S(=O)(=O)N2CCOCC2)cc1 [CBK287224] | 90.1%
CCC(CC)NS(=O)(=O)c1cccc(C(=O)O)c1 [CBK287225] | 88.3%
CC12CC(NC(=O)N1c1ccc(C(=O)O)cc1)c1ccccc1O2 (stereo not drawn) [CBK287226] | 82.2%
O=C(O)c1ccc(N2C(=O)CC(N3CCN(c4cccc(C(F)(F)F)c4)CC3)C2=O)cc1 (stereo not drawn) [CBK287228] | 93.3%
CC(C)(C)NC(=O)COc1ccc(CNc2ccc(C(=O)O)c(Cl)c2)cc1 [CBK287230] | 111%
COc1ccc(-c2nnc(SCC(=O)O)n2C)cc1 [CBK287232] | 93%
COc1ccc(C2NC(C(=O)O)C3C(=O)N(c4ccc(C)cc4)C(=O)C23)c(OC)c1 (stereo not drawn) [CBK287233] | 90.2%
CC1CCC(C(=O)Nc2ccc(C(=O)O)cc2)CC1 (stereo not drawn) [CBK287234] | 94.8%
CCCOc1ccc(N2C(=O)CC(N3CCC(C(=O)O)CC3)C2=O)cc1 (stereo not drawn) [CBK287235] | 102%
O=C(O)C(Cc1c[nH]c2ccccc12)NCC1CCCCC1 (stereo not drawn) [CBK287238] | 110%
CS(=O)(=O)N(Cc1ccccc1F)c1ccccc1C(=O)O [CBK287239] | 104%
COc1ccc(NC(=O)c2cnn3c2NC(C(=O)O)=CC3c2ccccc2)cc1 (stereo not drawn) [CBK287240] | 101%
CC(=O)NCCCCCC(=O)Nc1ccc(C(=O)O)cc1 [CBK287241] | 101%
O=C(O)c1ccc(CNCC(O)c2ccccc2)cc1 (stereo not drawn) [CBK287243] | 109%
O=C(O)Cn1nc(-c2ccccc2)c2ccccc2c1=O [CBK287249] | 88%
CN(C)CCNCc1ccc(-c2cccc(C(=O)O)c2)o1 [CBK287250] | 89.9%
CCCN1C(C)=NS(=O)(=O)c2cc(C(=O)O)ccc21 [CBK287251] | 92.4%
COc1ccc(/C=C/C(=O)O)cc1S(=O)(=O)NCc1ccccc1 [CBK287252] | 87.9%
CCOc1ccccc1C1C=C(C(=O)O)Nc2c(C(=O)Nc3ccccc3)cnn21 (stereo not drawn) [CBK287253] | 93.7%
Cc1ccc2nc(C(=O)O)cc(OCC(=O)Nc3ccccc3F)c2c1 [CBK287255] | 88.8%

SMILES | viability at 28.5 h, 10 µM
Cc1ccc2ncnc(NCCCCCC(=O)O)c2c1 [CBK287256] | 91.4%
O=C(O)CNCc1ccc(-c2ccc(Cl)cc2)o1 [CBK287258] | 102%
COc1ccc(CN2C(=O)CC(C(=O)O)S/C2=N\c2ccc(Cl)cc2)cc1 (stereo not drawn) [CBK287259] | 106%
Cc1ccc(-c2noc(-c3cccnc3N3CCC(C(=O)O)CC3)n2)cc1 [CBK287260] | 90.3%
O=C(O)CCN1CCN(c2ccc(F)cc2)CC1 [CBK287262] | 79.6%
O=C(O)CSC1=CC(=O)N(c2ccc(Br)cc2)C1=O [CBK287263] | 81.5%
COc1ncccc1C(=O)NCC(CC(=O)O)c1ccc(Cl)cc1 (stereo not drawn) [CBK287264] | 92.1%
O=C(O)c1ccc(CNCCc2c[nH]c3ccccc23)cc1 [CBK287265] | 87.6%
CCN1C(=O)CC(C(=O)O)S/C1=N\c1ccc(OC)cc1 (stereo not drawn) [CBK287266] | 105%
O=C(O)C1(NCc2ccc(F)cc2)CCCCC1 [CBK287270] | 87.1%
Cc1cc(C)nc(N2CCN(CCC(=O)O)CC2)n1 [CBK287272] | 97%
Cc1onc(-c2ccccc2)c1C(=O)n1cccn1 [CBK287274] | 97.5%
CNS(=O)(=O)c1ccc2c3c(cccc13)C(=O)N2 [CBK287275] | 89.7%
Fc1cnc(Nc2ccccc2)nc1N1CCOCC1 [CBK287279] | 76.5%
Cc1nn(-c2ccccn2)c2c1-c1oncc1CC2 [CBK287280] | 90.7%
COc1ccc(C2CC(c3ccccc3O)=NN2)cc1 (stereo not drawn) [CBK287281] | 77.8%
O=C(Nc1ccc(F)cc1)C1CC(=O)n2c(nc3ccccc32)N1 (stereo not drawn) [CBK287282] | 101%
c1nc2nc[nH]c(N3CCN(Cc4ccc5c(c4)OCO5)CC3)c-2n1 [CBK287283] | 83.5%
Cc1ccc(NC(=O)c2cnc3ccc(C)cn3c2=O)cc1 [CBK287285] | 90.2%
Cc1ccc2ncc(C(=O)Nc3ccc(F)cc3F)c(=O)n2c1 [CBK287286] | 95.6%
CCOc1ccc(C(=O)Nc2nonc2CC)cc1 [CBK287287] | 94.3%
Fc1ccc(OCc2nn3cnnc3s2)cc1 [CBK287288] | 102%
CC(C)(C)c1nnc2sc(-c3cccnc3)nn12 [CBK287289] | 112%
